Results as given in the Kinase Knowledgebase extract (Sharma et al. 2016).

Assays:
MAPK14 (human) = MAPK14 (human) (UniProt Q16539); experiment: p38 Kinase Inhibition
MAPK14 = MAPK14 (UniProt Q16539); experiment: p38 --- TNF-alpha Inhibition; details: for IC50: thp1
Chain of MAPK14 (Q16539 whole entry, looked up): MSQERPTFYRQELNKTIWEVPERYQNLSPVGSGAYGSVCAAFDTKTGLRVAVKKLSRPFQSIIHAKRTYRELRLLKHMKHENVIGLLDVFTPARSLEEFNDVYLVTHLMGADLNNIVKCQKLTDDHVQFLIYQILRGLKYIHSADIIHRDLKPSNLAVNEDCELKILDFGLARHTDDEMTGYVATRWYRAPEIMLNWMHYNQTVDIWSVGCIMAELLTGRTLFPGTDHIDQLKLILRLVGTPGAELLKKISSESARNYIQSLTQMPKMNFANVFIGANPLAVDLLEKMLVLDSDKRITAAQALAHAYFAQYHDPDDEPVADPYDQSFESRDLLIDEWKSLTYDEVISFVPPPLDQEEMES

Chain of MAPK14 (human) (Q16539 whole entry, looked up): as above

Compound | IC50 (MAPK14 (human)) | IC50 (MAPK14) | inhibition (MAPK14; thp1, concentration not given here)
Clc1cccc(-c2nc3cccccc-3c2-c2ccncc2)c1 | 4.96 µM | 1.42 µM | 
Fc1ccc(-c2nc3cccccc-3c2-c2ccnc(F)c2)cc1 | 3.28 µM | 1.56 µM | 
Fc1cc(-c2c3cccccc-3nc2-c2cccc(C(F)(F)F)c2)ccn1 | 12.1 µM | 1.61 µM | 
Cc1ccc(-c2nc3cccccc-3c2-c2ccncc2)cc1 | 4.76 µM | 0.263 µM | 
CNc1nccc(-c2c3cccccc-3nc2-c2ccc(F)cc2)n1 | 17.1 µM | 1.71 µM | 
COc1ccc(-c2nc3cccccc-3c2-c2ccncc2)cc1 | 24.1 µM |  | 37%

Stronger by IC50 (MAPK14 (human)), values ahead:

IC50 (MAPK14 (human)) | IC50 (MAPK14) | inhibition (MAPK14; thp1, concentration not given here) | Compound
2.85 µM | 0.675 µM |  | CNc1nccc(-c2c3cccccc-3nc2-c2cccc(C(F)(F)F)c2)n1
2.79 µM | 1.4 µM |  | Clc1ccc(-c2nc3cccccc-3c2-c2ccncc2)cc1
2.59 µM | 4.51 µM |  | CSc1nccc(-c2c3cccccc-3nc2-c2ccc(F)cc2)n1
1.47 µM | 0.16 µM |  | FC(F)(F)c1cccc(-c2nc3cccccc-3c2-c2ccncc2)c1
1.34 µM | 0.23 µM |  | Fc1ccc(-c2nc3cccccc-3c2-c2ccncc2)cc1
0.935 µM | 0.95 µM |  | Fc1cc(-c2c3cccccc-3nc2-c2cccc(Cl)c2)ccn1
